From US10100041B2, “Pyrazolyl substituted tetrahydropyranylsulfones” (GRÜNENTHAL GMBH, priority 2015, dated 2018) come the findings set out here.

The structures appear in SMILES notation.

This experiment has as its target T1, Human CaV2.2 channels (Homo sapiens, UniProt Q00975).
T1 construct: expressed in transfected cells
Nature of the experiment: Fluorescence assay for CaV2.2 channels using potassium depolarization to induce channel opening (FLIPR, Fluo 4). In kind it is cell-based. The note with it: 30 mM KCl (alternative assay buffer, inactivated channel state), HEK293 cells; for inhibition at 3 µM: HEK293, 3 μM test compound, read-out: Activity Category: %-Inhib (CaV2.2) @3 μM @30 mM KCl. The source says: In the process, the Ca^2+ influx is quantified in the FLIPR assay with the aid of a Ca^2+-sensitive dye (type Fluo-4, Molecular Probes Europe BV, Leiden, the Netherlands) in a fluorescent imaging plate reader (FLIPR 3, Molecular Devices, Sunnyvale, USA), as described hereinafter.
2.1 Fluorescence Assay for CaV2.2 Channels Using Potassium Depolarization to Induce Channel Opening
Human CaV2.2 channels were stably expressed in HEK293 cells together with alpha2-delta and beta subunits of voltage gated calcium channels. In addition, an inwardly rectifying potassium channel (Kir2.3) was stably expressed in these cells to augment control of the cell membrane potential by the concentration of extracellular potassium ions. Raise of the extracellular potassium concentration leads to depolarization of the membrane potential and thus regulates the voltage dependent state of CaV2.2 channels. For preparation, cells were seeded in black poly-D-lysine coated 96-well plates (Becton Dickinson, Biocoat 4640) in 100 μL medium [500 mL DMEM/F-12 plus Glutamax (Invitrogen 31331-093) plus 5.5 mL MEM NEAA 100× (Invitrogen 11140-035) plus 50 mL FBS decomplemented (Invitrogen 10270-106) plus 200 μg/mL Geneticin (Invitrogen 10131-027) plus 50 μg/mL Hygromycin B (Invitrogen 10687-010) plus 2 μg/mL Blasticidin (anti-b15b Invivo-Gen) plus 0.2 μg/mL Puromycin (A 11138-03)] at a cell density of 30.000 cells per well. Plates were incubated at 37° C. (5% CO2) for 20 to 23 h. On the day of experiment medium was discarded and cells were loaded with Fluo 4 by addition of 100 μL of basic assay buffer (10 mM HEPES, 1 mM KCl, 149 mM NaCl, 0.8 mM CaCl2, 1.7 mM MgCl2, 10 mM Glucose, 0.1% BSA. pH 7.4) containing 2 μM Fluo 4 (Molecular Probes; F-14201), 0.01% pluronic acid (Molecular Probes; P-6866) and 2.5 mM probenecid (Molecular Probes; P36400). Cells were incubated in the dark at 25° C. for 60 min. Then dye containing buffer was discarded and […] basic (1 mM KCl) or alternative (30 mM KCl) assay buffer was added. The alternative assay buffer contained altered concentrations of KCl (30 mM) and NaCl (120 mM) and was used in order to promote the inactivated channel state. After that 25 μL of basic or alternative assay buffer with or without test compound were added and cells were incubated again in the dark at 25° C. for 15 min. Fluorescence intensity was measured on a FLIPR 3 instrument (Molecular Devices Corp., Sunnyvale, Calif.) with excitation at 480 nm and emission at 535 nm. After continuously reading fluorescence for 30 sec, 50 μL of basic assay buffer containing 210 mM KCl (NaCl omitted) were added for depolarization. Peak fluorescent signal intensity was determined and the amplitude of the peak signal, normalized to base line, was used to measure channel inhibition by test compounds.

T1 sequence (Q00975 whole entry): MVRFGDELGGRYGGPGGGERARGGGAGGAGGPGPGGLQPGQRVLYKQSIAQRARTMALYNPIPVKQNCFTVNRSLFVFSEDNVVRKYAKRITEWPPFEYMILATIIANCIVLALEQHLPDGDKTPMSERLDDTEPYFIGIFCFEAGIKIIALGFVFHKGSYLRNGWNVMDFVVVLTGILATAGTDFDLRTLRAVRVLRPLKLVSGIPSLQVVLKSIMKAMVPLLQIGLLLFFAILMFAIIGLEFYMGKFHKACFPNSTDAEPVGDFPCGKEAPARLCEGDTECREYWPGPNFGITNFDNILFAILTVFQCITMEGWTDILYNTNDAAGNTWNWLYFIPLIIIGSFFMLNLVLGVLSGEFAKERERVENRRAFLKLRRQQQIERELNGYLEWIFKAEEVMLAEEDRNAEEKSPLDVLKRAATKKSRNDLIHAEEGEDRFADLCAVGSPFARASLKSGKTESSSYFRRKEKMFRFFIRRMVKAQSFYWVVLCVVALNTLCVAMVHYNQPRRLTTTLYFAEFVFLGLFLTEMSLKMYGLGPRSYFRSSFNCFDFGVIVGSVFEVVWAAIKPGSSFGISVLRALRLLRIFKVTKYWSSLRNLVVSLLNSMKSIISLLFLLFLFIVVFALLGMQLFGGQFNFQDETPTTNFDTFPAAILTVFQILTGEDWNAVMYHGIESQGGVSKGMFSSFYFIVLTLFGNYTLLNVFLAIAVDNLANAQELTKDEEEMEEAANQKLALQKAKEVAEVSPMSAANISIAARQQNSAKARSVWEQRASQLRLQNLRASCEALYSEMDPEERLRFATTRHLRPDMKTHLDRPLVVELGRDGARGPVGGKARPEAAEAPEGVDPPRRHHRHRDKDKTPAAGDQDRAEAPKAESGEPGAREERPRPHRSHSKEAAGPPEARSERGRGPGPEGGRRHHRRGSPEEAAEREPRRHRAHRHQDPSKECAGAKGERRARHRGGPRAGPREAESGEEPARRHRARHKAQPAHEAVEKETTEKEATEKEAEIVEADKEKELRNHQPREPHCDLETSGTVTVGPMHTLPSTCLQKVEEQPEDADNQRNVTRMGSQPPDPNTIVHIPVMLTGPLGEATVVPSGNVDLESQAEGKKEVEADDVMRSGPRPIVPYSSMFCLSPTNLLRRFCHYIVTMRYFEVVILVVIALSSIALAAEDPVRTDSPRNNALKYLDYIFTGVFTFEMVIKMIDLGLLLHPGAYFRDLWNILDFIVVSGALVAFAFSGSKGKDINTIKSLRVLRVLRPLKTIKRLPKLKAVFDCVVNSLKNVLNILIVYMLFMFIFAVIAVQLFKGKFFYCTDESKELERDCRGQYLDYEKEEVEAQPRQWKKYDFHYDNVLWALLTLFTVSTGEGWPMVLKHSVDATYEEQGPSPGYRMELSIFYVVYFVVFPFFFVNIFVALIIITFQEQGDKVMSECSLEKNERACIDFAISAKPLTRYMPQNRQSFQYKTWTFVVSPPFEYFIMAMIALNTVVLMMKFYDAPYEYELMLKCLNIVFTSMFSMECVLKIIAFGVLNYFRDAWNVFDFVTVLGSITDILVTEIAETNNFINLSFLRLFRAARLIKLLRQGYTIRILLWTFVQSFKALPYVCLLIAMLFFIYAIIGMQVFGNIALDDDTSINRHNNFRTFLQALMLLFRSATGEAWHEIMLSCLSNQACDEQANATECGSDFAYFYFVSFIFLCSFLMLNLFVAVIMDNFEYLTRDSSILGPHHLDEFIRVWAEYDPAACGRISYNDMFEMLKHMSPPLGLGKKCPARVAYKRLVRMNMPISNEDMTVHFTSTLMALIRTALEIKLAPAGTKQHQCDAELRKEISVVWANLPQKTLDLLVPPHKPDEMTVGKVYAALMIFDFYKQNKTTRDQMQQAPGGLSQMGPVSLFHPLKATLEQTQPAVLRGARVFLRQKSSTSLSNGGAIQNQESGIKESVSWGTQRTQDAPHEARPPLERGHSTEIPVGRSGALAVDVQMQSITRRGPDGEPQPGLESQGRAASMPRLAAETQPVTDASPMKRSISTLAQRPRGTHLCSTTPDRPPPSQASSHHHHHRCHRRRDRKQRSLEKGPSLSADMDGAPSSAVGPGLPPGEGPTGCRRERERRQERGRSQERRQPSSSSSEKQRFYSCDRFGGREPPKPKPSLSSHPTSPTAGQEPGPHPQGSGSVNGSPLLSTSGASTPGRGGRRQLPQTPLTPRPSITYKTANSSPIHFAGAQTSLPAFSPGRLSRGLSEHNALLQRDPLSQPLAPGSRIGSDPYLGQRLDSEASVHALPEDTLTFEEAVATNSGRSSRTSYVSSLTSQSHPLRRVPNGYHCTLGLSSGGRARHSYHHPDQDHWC

For `COCn1nc(C(F)F)cc1C1CC(C)(S(=O)(=O)c2cccc(C(F)(F)F)c2)CCO1` (stereo not drawn) [Example 5 cis-EN2, 3-(Difluoromethyl)-1-(methoxymethyl)-5-(4-methyl-4-((3-(trifluoromethyl)phenyl)sulfonyl)tetrahydro-2H-pyran-2-yl)-1H-pyrazole], the “Activity Category: %-Inhib (CaV2.2) @3 μM @30 mM KCl” value (3 μM test compound) is recorded as “A (“A”: %-Inhibition >95%)”.

`CC1(S(=O)(=O)c2cccc(C(F)(F)F)c2)CCOC(c2cc(C(F)(F)F)nn2CC(N)=O)C1` (stereo not drawn) [Example 11 cis-EN1, 2-[5-[4-Methyl-4-[[3-(trifluoromethyl)phenyl]sulfonyl]-tetrahydro-pyran-2-yl]-3-(trifluoromethyl)-1H-pyrazol-1-yl]-acetamide]: the inhibition at 3 µM fell in the range of 75 to 95%.

Turning to `CC1(S(=O)(=O)c2cccc(C(F)(F)F)c2)CCOC(c2cc(C(F)(F)F)nn2CS(C)(=O)=O)C1` (racemic) [Example 18 cis-rac, 1-(Methylsulfonyl-methyl)-5-[4-methyl-4-[[3-(trifluoromethyl)phenyl]sulfonyl]-tetrahydro-pyran-2-yl]-3-(trifluoromethyl)-1H-pyrazole], the inhibition at 3 µM is more than 95%.

Regarding `COCCn1nc(S(C)(=O)=O)cc1C1CC(C)(S(=O)(=O)c2cccc(C(F)(F)F)c2)CCO1` (racemic) [Example 23 cis-rac, 1-(2-Methoxyethyl)-5-(4-methyl-4-((3-(trifluoromethyl)phenyl)sulfonyl)tetrahydro-2H-pyran-2-yl)-3-(methylsulfonyl)-1H-pyrazole], the inhibition at 3 µM was 75 to 95%.

Turning to `CC1(S(=O)(=O)c2cccc(C(F)(F)F)c2)CCOC(c2cc(C(F)(F)F)nn2CCCO)C1` (stereo not drawn) [Example 9 cis-EN1, 3-[5-[4-Methyl-4-[[3-(trifluoromethyl)phenyl]sulfonyl]-tetrahydro-pyran-2-yl]-3-(trifluoromethyl)-1H-pyrazol-1-yl]-propan-1-ol], the inhibition at 3 µM lay in the range of 75 to 95%.
